How the values were obtained:
PKD2−/− organoids [1] = assay: Primary protein kinase inhibitor screen for cyst formation in mini-kidney organoids; format: cell-based, human; conditions: 1 μM, 9 wells on 3 plates per compound
Description: The autoclaved methylcellulose was dissolved in 60° C. 450 ml of Advanced RPMI 1640 Medium (Gibco, 12633020).
Several commercially available libraries of pathway annotated protein kinase inhibitors were purchased from Calbiochem for screening: EMD protein kinase inhibitor 1 (Cat. No. 539744); EMD-protein kinase inhibitor-2 (Cat. No. 539745); EMD protein kinase inhibitor-3 (Cat. No. 539746); EMD protein kinase inhibitor-4 (Cat. No. 539747). All screens were carried out in the Choi Family Therapeutic Screening Facility in the Broad-CIRM center.
Protein kinase inhibitors were diluted in DMSO to make 10 μM stocks. […] The plates were loaded on the ImageXpress Micro System for live imaging right after compounds were loaded. The imaging was performed using the “Standard” algorithm, at 4× magnification, 2 camera binning, with laser-based and image-based focusing enabled, and well-to-well autofocus was set to “focus on plate bottom and well bottom”.
To gain new insight into pathways specifically regulating cystic growth and to validate the mini-organoid system as a robust drug screening tool, we screened a commercial library of pathway annotated protein kinase inhibitors (FIG. 19). The primary screen was performed using a library of 247 protein kinase inhibitors (PKIs) (at 1 μM) on PKD2−/− organoids, with 9 wells on 3 separate plates per compound. […] To increase the stringency of the screen, only compounds identified as “hits” in all 9 wells were considered true “hits” and selected for a secondary screen.

PKD2−/− organoids [2] = conditions: for Inhibition of cyst formation / cystic growth: PKD2−/− mutant organoids, 0.1 μM
Description: (§1) 15 g of methelcellulose powder (Sigma-Aldrich, M0512) was autoclaved in a 500-ml Erlenmeyer flask. The autoclaved methylcellulose was dissolved in 60° C. 450 ml of Advanced RPMI 1640 Medium (Gibco, 12633020). 50 ml of Advanced RPMI 1640 Medium+1× Glutamax (Gibco, 35050079) and 1% Penicillin-Streptomycin (Invitrogen, 15070063) was then added at room temperature to a final volume of 500 ml. The final stock solution was cleared by centrifugation at 4000×g for 2 hours. The clear viscous supernatant was used for the spheroid assay. For mini-organoids culture and imaging, 170 μl of 20% methycellulose stock solution+80% basal differentiation media mix was added to each well of a 96-well plate (brand).
(§2) At dd13, miniature kidney organoids were transferred from the EZSPHERE plates to a sterile 35-mm dish by gentle pipetting with wide-bore P1000 tips. Under a dissecting microscope, 10-12 mini-organoids in 10 μl of media were picked up using a P20 pipetman and released into a well of the methylcellulose plate. A P20 pipette tip was then used to adjust the mini-organoids' positions in the well to avoid clustering. The mini-organoids then dispersed at the bottom of the well.
Compounds that were scored as true “hits” from the primary screen were selected for validations in both PKD1−/− and PKD2−/− mutant organoids. The compounds were diluted in DMSO to 1, 10 or 100 μM via serial dilution to make the working stocks. At dd14, 20 μl of each diluted compound or DMSO was added to a methylcellulose well with embedded organoids (180 μl) to achieve a final concentration of 0.1, 1 or 10 μM. The plates were imaged for 7 days using the ImageXpress Micro System as described above.
Compounds that inhibited cyst formation in both PKD1−/− and PKD2−/− mini-organoids were classified as final “hits”.
Tolvaptan is the first FDA approved pharmacological treatment for ADPKD targeting cAMP levels through the inhibition of AVPR2.
We examined dosage-dependent responses by applying 3 different compound concentrations of each compound: 0.1, 1 and 10 μM.

PKD1−/− organoids = assay: Secondary screen of cystogenesis, dosage-dependent responses; format: cell-based, human
Description: as §1, §2
Compounds that were scored as true “hits” from the primary screen were selected for validations in both PKD1−/− and PKD2−/− mutant organoids. […]

SMILES	Primary screen outcome at dd20 (cystic growth / cell growth inhibition) (PKD2−/− organoids [1])	other results
O=C(c1ccc(Nc2nccc(-c3cc4ccccc4s3)n2)cc1)N1CCC(N2CCCC2)CC1 [IKK inhibitor VII]	more specific inhibition of cystic growth	–
O=C1c2ccccc2-[n+]2ccc3c([nH]c4ccccc43)c21 [fascaplysin]	more specific inhibition of cystic growth	–
CC1=C(O)C(=O)C=C2C1=CC=C1[C@@]2(C)CC[C@@]2(C)[C@@H]3C[C@](C)(C(=O)O)CC[C@]3(C)CC[C@]12C [Celastrol]	–	Effect on cell growth (PKD2−/− organoids [2]; PKD2−/− organoids, 10 μM): more broadly detrimental to cell growth; Screen outcome category (PKD2−/− organoids [2]; PKD2−/− organoids, at 1): hit
Cc1ncc2ccccc2c1C#N [4-Cyano-3-methylisoquinoline]	more specific inhibition of cystic growth	–
O=C1NC(=NCc2cccs2)S/C1=C\c1ccc2ncccc2c1 [Cdk1 inhibitor IV RO-3306]	more specific inhibition of cystic growth	–
CN[C@@H]1C[C@H]2O[C@@](C)([C@@H]1OC)n1c3ccccc3c3c4c(c5c6ccccc6n2c5c31)C(=O)N[C@H]4O [UCN-02, 7-epi-hydroxystaurosporine]	more specific inhibition of cystic growth	–
NC(=O)Nc1sc(-c2ccccc2)cc1C(N)=O [IKK-2 inhibitor VI, (5-phenyl-2-ureido)thiophene-3-carboxamide]	more specific inhibition of cystic growth	–
Nc1ccc2ncnc(NCCc3ccc(Oc4ccccc4)cc3)c2c1 [NF-κB activation inhibitor]	–	Inhibition of cyst formation / cystic growth (PKD2−/− organoids [2]): highly effective inhibiting cystic growth; Inhibition of cystic growth (PKD1−/− organoids; PKD1−/− mutants, 0.1 μM): highly effective inhibiting cystic growth
CC(C)C[C@H](NC(=O)[C@H](CCc1ccccc1)NC(=O)CN1CCOCC1)C(=O)N[C@@H](Cc1ccccc1)C(=O)N[C@@H](CC(C)C)C(=O)[C@@]1(C)CO1 [Carfilzomib]	–	Inhibition of cyst formation / cystic growth (PKD2−/− organoids [2]): prevented cyst formation effectively; Concentration at which cyst formation was prevented (PKD1−/− organoids; PKD1−/− cystic organoids, tested 0.1, 1, 10 μM): only at the highest concentration
COc1cccc(-c2cc(=O)c3ccccc3o2)c1N [PD 98059]	more specific inhibition of cystic growth	–
O=C1NCCc2[nH]c(-c3ccncc3)cc21 [Cdc7/Cdk9 inhibitor]	more specific inhibition of cystic growth	–
Nc1ncnc2n[nH]c(Nc3ccc(F)cc3)c12 [MNK1 inhibitor]	more specific inhibition of cystic growth	–

— patent US20200390825A1, “PLURIPOTENT STEM CELL-DIRECTED MODEL OF AUTOSOMAL DOMINANT POLYCYSTIC KIDNEY DISEASE FOR DISEASE MECHANISM AND DRUG DISCOVERY” (University of Southern California, priority 2019, published 2020)
